Earlier results as cited in patent US20250289851A1, “CYCLIC PEPTIDES FOR DELIVERING THERAPEUTICS” (ENTRADA THERAPEUTICS, INC., priority 2022, published 2025).

Experiments:
[1] = hydrophobicity value, scale of Eisenberg and Weiss
[2] = hydrophobicity value, scale of Engleman et al.
[3] = hydrophobicity value, scale of Kyte and Doolittle
[4] = hydrophobicity value, scale of Hoop and Woods
[5] = hydrophobicity value, scale of Janin

## CC[C@H](C)[C@H](N)C(=O)O [Ile, Isoleucine]
[1]
  Amino Acid Hydrophobicity, Eisenberg and Weiss: 0.73
[2]
  Amino Acid Hydrophobicity, Engleman et al.: 3.1
[3]
  Amino Acid Hydrophobicity, Kyte and Doolittle: 4.5
[4]
  Amino Acid Hydrophobicity, Hoop and Woods: −1.8
[5]
  Amino Acid Hydrophobicity, Janin: 0.7
